Counter-ions that a name gives are not always drawn.
Experiment: 50% inhibitory concentration against phosphodiesterase 5 (PDE5) from porcine platelets

In order of falling IC50:
1. COc1ccc(CNc2nnc(N3CCC(O)CC3)c3ccc(C(=O)O)cc23)cc1Cl [4-(3-Chloro-4-methoxy-benzylamino)-1-(4-hydroxy-piperidin-1-yl)-phthalazine-6-carboxylic acid; hydrochloride]  600 nM
2. COc1ccc(CNc2nnc(N3CCN(c4ncccn4)CC3)c3ccc(C#N)cc23)cc1Cl [4-(3-Chloro-4-methoxy-benzylamino)-1-(4-pyrimidin-2-yl-piperazin-1-yl)-phthalazine-6-carbonitrile; hydrochloride]  19 nM
3. COc1ccc(CNc2nnc(N3CCC(NS(C)(=O)=O)CC3)c3ccc(C#N)cc23)cc1Cl [N-{1-[4-(3-Chloro-4-methoxy-benzylamino)-6-cyano-phthalazin-1-yl]-piperidin-4-yl}-methanesulfonamide; hydrochloride]  14 nM
4. COc1ccc(CNc2nnc(N[C@H]3CC[C@H](O)CC3)c3ccc(C#N)cc23)cc1Cl [4-(3-Chloro-4-methoxy-benzylamino)-1-(4-hydroxy-cyclohexylamino)-phthalazine-6-carbonitrile; hydrochloride]  12 nM
5. COc1ccc(CNc2nnc(N3CCN(c4ccccn4)CC3)c3ccc(C#N)cc23)cc1Cl [4-(3-Chloro-4-methoxy-benzylamino)-1-(4-pyridin-2-yl-piperazin-1-yl)-phthalazine-6-carbonitrile; hydrochloride]  11 nM
6. COc1ccc(CNc2nnc(NCc3cccnc3)c3ccc(C#N)cc23)cc1Cl [4-(3-Chloro-4-methoxy-benzylamino)-1-[(pyridin-3-ylmethyl)-amino]-phthalazine-6-carbonitrile; hydrochloride]  6.8 nM
7. COc1ccc(CNc2nnc(NCc3ccncc3)c3ccc(C#N)cc23)cc1Cl [4-(3-Chloro-4-methoxy-benzylamino)-1-[(pyridin-4-ylmethyl)-amino]-phthalazine-6-carbonitrile; hydrochloride]  6.7 nM
8. COc1ccc(CNc2nnc(N3CCC(O)CC3)c3ccc(Cl)cc23)cc1Cl [1-[6-Chloro-4-(3-chloro-4-methoxy-benzylamino)-phthalazin-1-yl]-piperidin-4-ol; hydrochloride]  4.4 nM
9. COc1ccc(CNc2nnc(N3CCC(C(=O)O)CC3)c3ccc(C#N)cc23)cc1Cl [1-[4-(3-Chloro-4-methoxy-benzylamino)-6-cyano-phthalazin-1-yl]-piperidine-4-carboxylic acid; hydrochloride]  3.1 nM
10. COc1ccc(CNc2nnc(Cl)c3ccc(C#N)cc23)cc1Cl  3 nM
11. COc1ccc(CNc2nnc(NCc3ccccn3)c3ccc(C#N)cc23)cc1Cl [4-(3-Chloro-4-methoxy-benzylamino)-1-[(pyridin-2-ylmethyl)-amino]-phthalazine-6-carbonitrile; hydrochloride]  2.7 nM
12. COc1ccc(CNc2nnc(NCCCO)c3ccc(C#N)cc23)cc1Cl [4-(3-Chloro-4-methoxy-benzylamino)-1-(3-hydroxy-propylamino)-phthalazine-6-carbonitrile; hydrochloride]  2.6 nM
13. COc1ccc(CNc2nnc(N3CCC(O)CC3)c3ccc(C(N)=O)cc23)cc1Cl [4-(3-Chloro-4-methoxy-benzylamino)-1-(4-hydroxy-piperidin-1-yl)-phthalazine-6-carboxylic acid amide; hydrochloride]  2 nM
14. COc1ccc(CNc2nnc(N3CC=CCC3)c3ccc(C#N)cc23)cc1Cl [4-(3-Chloro-4-methoxy-benzylamino)-1-(3,6-dihydro-2H-pyridin-1-yl)-phthalazine-6-carbonitrile; hydrochloride]  1.9 nM
15. COc1ccc(CNc2nnc(N3CCN(CCO)CC3)c3ccc(C#N)cc23)cc1Cl [4-(3-Chloro-4-methoxy-benzylamino)-1-[4-(2-hydroxy-ethyl)-piperazin-1-yl]-phthalazine-6-carbonitrile; hydrochloride]  1.7 nM
16. COc1ccc(CNc2nnc(-n3ccnc3)c3ccc(C#N)cc23)cc1Cl [4-(3-Chloro-4-methoxy-benzylamino)-1-imidazol-1-yl-phthalazine-6-carbonitrile; hydrochloride]  1.5 nM
17. COc1ccc(CNc2nnc(N3CCCC(O)C3)c3ccc(C#N)cc23)cc1Cl (configuration not stated) [4-(3-Chloro-4-methoxy-benzylamino)-1-(3-hydroxy-piperidin-1-yl)-phthalazine-6-carbonitrile; hydrochloride]  1.2 nM
18. COc1ccc(CNc2nnc(N3CCNCC3)c3ccc(C#N)cc23)cc1Cl [4-(3-Chloro-4-methoxy-benzylamino)-1-piperazin-1-yl-phthalazine-6-carbonitrile; hydrochloride]  1.2 nM
19. COc1ccc(CNc2nnc(N3CCC(OC)CC3)c3ccc(C#N)cc23)cc1Cl [4-(3-Chloro-4-methoxy-benzylamino)-1-(4-methoxy-piperidin-1-yl)-phthalazine-6-carbonitrile; hydrochloride]  1.1 nM
20. COc1ccc(CNc2nnc(N3CCN(C)CC3)c3ccc(C#N)cc23)cc1Cl [4-(3-Chloro-4-methoxy-benzylamino)-1-(4-methyl-piperazin-1-yl)-phthalazine-6-carbonitrile; hydrochloride]  0.95 nM
21. COc1ccc(CNc2nnc(N3CCC(CO)CC3)c3ccc(C#N)cc23)cc1Cl [4-(3-Chloro-4-methoxy-benzylamino)-1-(4-hydroxymethyl-piperidin-1-yl)-phthalazine-6-carbonitrile; hydrochloride]  0.93 nM
22. COc1ccc(CNc2nnc(N3CCC(O)CC3)c3cc(Cl)c(Cl)cc23)cc1Cl [1-[6,7-Dichloro-4-(3-chloro-4-methoxy-benzylamino)-phthalazin-1-yl]-piperidin-4-ol; hydrochloride]  0.86 nM
23. COc1ccc(CNc2nnc(N3CCS(=O)(=O)CC3)c3ccc(C#N)cc23)cc1Cl [4-(3-Chloro-4-methoxy-benzylamino)-1-(1,1-dioxo-1lambda*6*-thiomorpholin-4-yl)-phthalazine-6-carbonitrile; hydrochloride]  0.79 nM
24. COc1ccc(CNc2nnc(N3CCC(O)CC3)c3ccc(C(F)(F)F)cc23)cc1Cl [1-[4-(3-Chloro-4-methoxy-benzylamino)-6-trifluoromethyl-phthalazin-1-yl]-piperidin-4-ol; hydrochloride]  0.73 nM
25. COc1ccc(CNc2nnc(N3CC[S+]([O-])CC3)c3ccc(C#N)cc23)cc1Cl  0.7 nM
26. COc1ccc(CNc2nnc(N3CCC(C)(O)CC3)c3ccc(C#N)cc23)cc1Cl [4-(3-Chloro-4-methoxy-benzylamino)-1-(4-hydroxy-4-methyl-piperidin-1-yl)-phthalazine-6-carbonitrile; hydrochloride]  0.7 nM
27. COc1ccc(CNc2nnc(N3CCC(CCO)CC3)c3ccc(C#N)cc23)cc1Cl [4-(3-Chloro-4-methoxy-benzylamino)-1-[4-(2-hydroxy-ethyl)-piperidin-1-yl]-phthalazine-6-carbonitrile; hydrochloride]  0.7 nM
28. COc1ccc(CNc2nnc(N3CCCCC3)c3ccc(C#N)cc23)cc1Cl [4-(3-Chloro-4-methoxy-benzylamino)-1-piperidin-1-yl-phthalazine-6-carbonitrile; hydrochloride]  0.55 nM
29. COc1ccc(CNc2nnc(N3CCC(=O)CC3)c3ccc(C#N)cc23)cc1Cl [4-(3-Chloro-4-methoxy-benzylamino)-1-(4-oxo-piperidin-1-yl)-phthalazine-6-carbonitrile; hydrochloride]  0.53 nM
30. COc1ccc(CNc2nnc(N3CCC(C(N)=O)CC3)c3ccc(C#N)cc23)cc1Cl [1-[4-(3-Chloro-4-methoxy-benzylamino)-6-cyano-phthalazin-1-yl]-piperidine-4-carboxylic acid amide; hydrochloride]  0.5 nM
31. COc1ccc(CNc2nnc(N3CCSCC3)c3ccc(C#N)cc23)cc1Cl [4-(3-Chloro-4-methoxy-benzylamino)-1-thiomorpholin-4-yl-phthalazine-6-carbonitrile; hydrochloride]  0.32 nM
32. COc1ccc(CNc2nnc(N3CCC(O)CC3)c3ccc([N+](=O)[O-])cc23)cc1Cl [1-[4-(3-Chloro-4-methoxy-benzylamino)-6-nitro-phthalazin-1-yl]-piperidin-4-ol; hydrochloride]  0.3 nM
